Reference: ChEMBL document CHEMBL1140125, “Purity-activity relationships of natural products: the case of anti-TB active ursolic acid” (2008)
Converted amounts (≈) assume the structure as drawn.

Legend:
[1] = system: Mycobacterium tuberculosis; assay: Antimycobacterial activity against Mycobacterium tuberculosis H37Rv ATCC 27294 after 7 days by microplate Alamar blue assay; format: functional; conditions: 168 h
[2] = system: Mycobacterium tuberculosis; assay: Antimycobacterial activity against Mycobacterium tuberculosis H37Rv GFP after 7 days by green fluorescent microplate assay; format: functional; conditions: 168 h

Compound	MIC [1]	MIC [2]
C=C(C)[C@@H]1CC[C@]2(C(=O)O)CC[C@]3(C)[C@H](CC[C@@H]4[C@@]5(C)CC[C@H](O)C(C)(C)[C@@H]5CC[C@]43C)[C@@H]12 [BETULINIC ACID]	> 128 µg/mL	–
CC1(C)CC[C@]2(C(=O)O)CC[C@]3(C)C(=CC[C@@H]4[C@@]5(C)CC[C@H](O)C(C)(C)[C@@H]5CC[C@]43C)[C@@H]2C1 [OLEANOLIC_ACID]	100 µg/mL (≈ 219 µM)	–
C[C@H]1[C@H](C)CC[C@]2(C(=O)O)CC[C@]3(C)C(=CC[C@@H]4[C@@]5(C)CC[C@H](O)C(C)(C)[C@@H]5CC[C@]43C)[C@H]12 [URSOLIC ACID]	> 256 µg/mL	> 100 µg/mL
